pKi: −log10 of the molar value.
Molecular target: T1, c-MET (HGFR) (Homo sapiens, UniProt P08581)
T1 construct: purchased Upstate 14-526
Experiment: HGFR Continuous-Coupled Spectrophotometric Assay
Type: biochemical
Settings: for pKi: Met-2 substrate peptide, 50 nM HGFR, 37° C., read-out: c-Met Ki
Description: The following in vitro assay may be used to determine the level of activity and effect of the different compounds of the present invention on one or more of the PKs. Similar assays can be designed along the same lines for any PK using techniques well known in the art.
The general procedure is as follows: compounds and kinase assay reagents are introduced into test wells. The assay is initiated by addition of the kinase enzyme. Enzyme inhibitors reduce the measured activity of the enzyme.
In the continuous-coupled spectrophotometric assay the time-dependent production of ADP by the kinase is determined by analysis of the rate of consumption of NADH by measurement of the decrease in absorbance at 340 nm. As the PK produces ADP it is re-converted to ATP by reaction with phosphoenol pyruvate and pyruvate kinase. Pyruvate is also produced in this reaction. Pyruvate is subsequently converted to lactate by reaction with lactate dehydrogenase, which simultaneously converts NADH to NAD.
HGFR Continuous-Coupled Spectrophotometric Assay
This assay analyzes the tyrosine kinase activity of HGFR on the Met-2 substrate peptide, a peptide derived from the activation loop of the HGFR.
• 1. […] Dissolve up in 200 mM HEPES, pH 7.5 at 10 mM stock. • 3. 1 M PEP (phospho-enol-pyruvate) in 200 mM HEPES, pH 7.5 • 4. 100 mM NADH (B-Nicotinamide Adenine Dinucleotide, Reduced Form) in 200 mM HEPES, pH 7.5 • 5. 4 M MgCl2 (Magnesium Chloride) in ddH2O • 6. 1 M DTT (Dithiothreitol) in 200 mM HEPES, pH 7.5 • 7. 15 Units/mL LDH (Lactic Dehydrogenase) • 8. 15 Units/mL PK (Pyruvate Kinase) • 9. 5M NaCl dissolved in ddH2O • 10. Tween-20 (Protein Grade) 10% Solution • 11. 1 M HEPES buffer: (N-[2-Hydroxethyl]piperazine-N-[2-ethanesulfonic acid]) Sodium Salt. Dissolve in ddH2O, adjust pH to 7.5, bring volume to 1 L. Filter at 0.1 μm. • 12. […] 100% DMSO (SIGMA) • 14. […] Beckman DU-650 w/micro cell holders • 18. Beckman 4-position micro cell cuvette Procedure:
Prep Dilution Buffer (DB) for Enzyme (For 30 mL prep) • 1. DB final concentration is 2 mM DTT, 25 mM NaCl2, 5 mM MgCl2, 0.01% Tween-20, and 50 mM HEPES buffer, pH 7.5. • 2. Make up 50 mM HEPES by adding 1.5 mL 1 M HEPES into 28.1 mL of ddH2O. Add rest of the reagents. Into 50 mL conical vial, add 60 μL of 1M DTT, 150 μL 5M NaCl2, 150 μL 1M MgCl2, and 30 μL of 10% Tween-20 to give total volume of 30 mL. • 3. […] Aliquot out DB at 1 mL/tube and label tubes as “DB HGFR” • 5. Note: This can be prepared and stored ahead of time. • 6. Freeze un-used aliquots in microcentrifuge tubes at −20° C. freezer. […] For compound dilution plate, add 4 μL of 10 mM stock into column 1 of plate, and bring volume to 100 μL with 100% DMSO. • 2. Set up the Precision 2000 dilution method. A final concentration of 200 μM compound in 50% DMSO, 100 mM HEPES (1:2 serial dilution). Prep Coupled Enzymatic Buffer:
1. Final concentration in assay:
• 2. For a 10 mL reaction buffer add 10 μL of 1M PEP, 33 μL of 100 mM NADH, 50 μL of 4M MgCl2, 20 μL of 1M DTT, 6 μL of 500 mM ATP, and 500 μL of 10 mM Met-2 peptide into 100 mM HEPES buffer pH 7.5 and vortex/mix. • 3. Add coupling enzymes, LDH and PK, into reaction mix. Mix by gentle inversion. Running Samples
1. Spectrophotometer settings:
• 2. Add 85 μL of CE reaction mix into each well of assay plate. • 3. Add 5 μL of diluted compound into a well of the assay plate. • 4. Add 5 μL of 50% DMSO for negative control into last column of assay plate. • 5. Mix with multi-channel pipettor or orbital shaker. • 6. Pre-incubate for 10 minutes at 37° C. • 7. Add 10 μL of 500 nM HGFR to each well of assay plate; the final HGFR concentration is 50 nM in a total final volume of 100 μL. • 8. Measure activity for 10 minutes at λ=340 nm and 37° C.

T1 sequence (P08581 974-1390 limits assumed): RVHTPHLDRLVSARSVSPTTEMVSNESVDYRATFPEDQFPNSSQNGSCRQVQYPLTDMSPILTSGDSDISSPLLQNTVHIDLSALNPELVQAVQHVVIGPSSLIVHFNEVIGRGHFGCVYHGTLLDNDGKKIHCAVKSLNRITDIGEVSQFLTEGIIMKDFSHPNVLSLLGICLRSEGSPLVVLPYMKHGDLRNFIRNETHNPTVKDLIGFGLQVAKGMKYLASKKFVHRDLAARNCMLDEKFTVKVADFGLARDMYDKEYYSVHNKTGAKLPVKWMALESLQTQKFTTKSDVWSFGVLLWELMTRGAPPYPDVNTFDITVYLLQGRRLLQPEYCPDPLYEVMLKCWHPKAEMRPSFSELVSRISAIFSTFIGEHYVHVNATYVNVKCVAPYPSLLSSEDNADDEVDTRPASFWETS

Structure (SMILES)	pKi	c-Met % Inhibition (test concentration not given)
CC(Oc1cc(-c2cnn(C3CCN(S(C)(=O)=O)CC3)c2)cnc1N)c1c(Cl)ccc(F)c1Cl (centres unmarked) [Example 50, 3-[1-(2,6-Dichloro-3-fluoro-phenyl)-ethoxy]-5-[1-(1-methanesulfonyl-piperidin-4-yl)-1H-pyrazol-4-yl]-pyridin-2-ylamine]	8.00	–
Nc1ncc(-c2cn[nH]c2)cc1OC1CCCCc2ccc(F)cc21 (centres unmarked) [Example 54, 3-(3-Fluoro-6,7,8,9-tetrahydro-5H-benzocyclohepten-5-yloxy)-5-(1H-pyrazol-4-yl)-pyridin-2-ylamine]	–	21%
CCN(CC)C(=O)C(C)(C)n1cc(-c2cnc(N)c(OC(C)c3c(Cl)ccc(F)c3Cl)c2)cn1 (centres unmarked) [Example 55, 2-(4-{6-Amino-5-[1-(2,6-dichloro-3-fluoro-phenyl)-ethoxy]-pyridin-3-yl}-pyrazol-1-yl)-N,N-diethyl-isobutyramide]	6.40	–
CC(Oc1cc(-c2cnn(C(C)(C)C(=O)N3CC[C@H](O)C3)c2)cnc1N)c1c(Cl)ccc(F)c1Cl (stereo partly drawn) [Example 56, 2-(4-{6-Amino-5-[1-(2,6-dichloro-3-fluoro-phenyl)-ethoxy]-pyridin-3-yl}-pyrazol-1-yl)-1-((S)-3-hydroxy-pyrrolidin-1-yl)-2-methyl-propan-1-one]	6.33	–
CC(Oc1cc(-c2cnn(C(C)(C)C(=O)N3CCCC3)c2)cnc1N)c1c(Cl)ccc(F)c1Cl (centres unmarked) [Example 57, 2-(4-{6-Amino-5-[1-(2,6-dichloro-3-fluoro-phenyl)-ethoxy]-pyridin-3-yl}-pyrazol-1-yl)-2-methyl-1-pyrrolidin-1-yl-propan-1-one]	6.37	–
CC(Oc1cc(-c2cnn(C(C)(C)C(=O)N(C)C)c2)cnc1N)c1c(Cl)ccc(F)c1Cl (centres unmarked) [Example 58, 2-(4-{6-Amino-5-[1-(2,6-dichloro-3-fluoro-phenyl)-ethoxy]-pyridin-3-yl}-pyrazol-1-yl)-N,N-dimethyl-isobutyramide]	6.90	–
CC(Oc1cc(-c2cnn(C(C)(C)CO)c2)cnc1N)c1c(Cl)ccc(F)c1Cl (centres unmarked) [Example 59, 2-(4-{6-Amino-5-[1-(2,6-dichloro-3-fluoro-phenyl)-ethoxy]-pyridin-3-yl}-pyrazol-1-yl)-2-methyl-propan-1-ol]	7.85	–
CC(Oc1cc(-c2cnn(C(C)(C)CN(C)C)c2)cnc1N)c1c(Cl)ccc(F)c1Cl (centres unmarked) [Example 60, 3-[1-(2,6-Dichloro-3-fluoro-phenyl)-ethoxy]-5-[1-(2-dimethylamino-1,1-dimethyl-ethyl)-1H-pyrazol-4-yl]-pyridin-2-ylamine]	7.08	–
CC(Oc1cc(-c2cnn(C(C)(C)CN3CC[C@H](O)C3)c2)cnc1N)c1c(Cl)ccc(F)c1Cl (stereo partly drawn) [Example 61, (S)-1-[2-(4-{6-Amino-5-[1-(2,6-dichloro-3-fluoro-phenyl)-ethoxy]-pyridin-3-yl}-pyrazol-1-yl)-2-methyl-propyl]-pyrrolidin-3-ol]	7.15	–
CC(Oc1cc(-c2cnn(C(C)(C)COCCN3CCCC3)c2)cnc1N)c1c(Cl)ccc(F)c1Cl (centres unmarked) [Example 62, 3-[1-(2,6-Dichloro-3-fluoro-phenyl)-ethoxy]-5-{1-[1,1-dimethyl-2-(2-pyrrolidin-1-yl-ethoxy)-ethyl]-1H-pyrazol-4-yl}-pyridin-2-ylamine]	6.64	–
CC(Oc1cc(-c2cnn(C[C@H]3CCCN3)c2)cnc1N)c1c(Cl)ccc(F)c1Cl (stereo partly drawn) [Example 63, 3-[1-(2,6-Dichloro-3-fluoro-phenyl)-ethoxy]-5-(1-(R)-1-pyrrolidin-2-ylmethyl-1H-pyrazol-4-yl)-pyridin-2-ylamine]	7.14	–
CC(Oc1cc(-c2cnn(C[C@@H]3CCCN3)c2)cnc1N)c1c(Cl)ccc(F)c1Cl (stereo partly drawn) [Example 64, 3-[1-(2,6-Dichloro-3-fluoro-phenyl)-ethoxy]-5-(i-(S)-1-pyrrolidin-2-ylmethyl-1H-pyrazol-4-yl)-pyridin-2-ylamine]	7.38	–
C[C@@H](Oc1nc(-c2cnn(C3CCNCC3)c2)cnc1N)c1c(Cl)ccc(F)c1Cl [Example 66, 3-[(R)-1-(2,6-Dichloro-3-fluoro-phenyl)-ethoxy]-5-(1-piperidin-4-yl-1H-pyrazol-4-yl)-pyrazin-2-ylamine]	8.00	–
C[C@@H](Oc1nc(-c2cn[nH]c2)cnc1N)c1c(Cl)ccc(F)c1Cl [Example 67, 3-[(R)-1-(2,6-Dichloro-3-fluoro-phenyl)-ethoxy]-5-(1H-pyrazol-4-yl)-pyrazin-2-ylamine]	7.19	–
C[C@@H](Oc1nc(-c2cnn(C3CCN(C(=O)CO)CC3)c2)cnc1N)c1c(Cl)ccc(F)c1Cl [Example 68, 1-[4-(4-{5-Amino-6-[(R)-1-(2,6-dichloro-3-fluoro-phenyl)-ethoxy]-pyrazin-2-yl}-pyrazol-1-yl)-piperidin-1-yl]-2-hydroxy-ethanone]	7.82	–
C[C@@H](Oc1nc(-c2cnn(C3CCN(C)CC3)c2)cnc1N)c1c(Cl)ccc(F)c1Cl [Example 69, 3-[(R)-1-(2,6-Dichloro-3-fluoro-phenyl)-ethoxy]-5-[1-(1-methyl-piperidin-4-yl)-1H-pyrazol-4-yl]-pyrazin-2-ylamine]	7.52	–
C[C@@H](Oc1nc(-c2cnn(C3CCN(C(=O)CN(C)C)CC3)c2)cnc1N)c1c(Cl)ccc(F)c1Cl [Example 70, 1-[4-(4-{5-Amino-6-[(R)-1-(2,6-dichloro-3-fluoro-phenyl)-ethoxy]-pyrazin-2-yl}-pyrazol-1-yl)-piperidin-1-yl]-2-dimethylamino-ethanone]	7.82	–
CC(Oc1cc(-c2cnn(S(C)(=O)=O)c2)cnc1N)c1c(Cl)ccc(F)c1Cl (centres unmarked) [Example 71, 3-[1-(2,6-Dichloro-3-fluoro-phenyl)-ethoxy]-5-(1-methanesulfonyl-1H-pyrazol-4-yl)-pyridin-2-ylamine]	6.77	–
C[C@@H](Oc1cc(-c2cnn(C3CCNCC3)c2)cnc1N)c1c(F)ccc(F)c1Cl [Example 72, 3-[(R)-1-(2-Chloro-3,6-difluoro-phenyl)-ethoxy]-5-(1-piperidin-4-yl-1H-pyrazol-4-yl)-pyridin-2-ylamine]	7.05	–
CNCCn1cc(-c2cnc(N)c(OC(C)c3c(Cl)ccc(F)c3Cl)c2)cn1 (centres unmarked) [Example 73, 3-[1-(2,6-Dichloro-3-fluoro-phenyl)-ethoxy]-5-[1-(2-methylamino-ethyl)-1H-pyrazol-4-yl]-pyridin-2-ylamine]	7.26	–
CC(Oc1cc(-c2ccn(C3CCNCC3)n2)cnc1N)c1c(Cl)ccc(F)c1Cl (centres unmarked) [Example 75, 3-[1-(2,6-Dichloro-3-fluoro-phenyl)-ethoxy]-5-(1-piperidin-4-yl-1H-pyrazol-3-yl)-pyridin-2-ylamine]	7.42	–
Cc1ccn(-c2cnc(N)c(OC(C)c3c(Cl)ccc(F)c3Cl)c2)n1 (centres unmarked) [Example 77, 3-[1-(2,6-Dichloro-3-fluoro-phenyl)-ethoxy]-5-(3-methyl-pyrazol-1-yl)-pyridin-2-ylamine]	5.72	–
CC(Oc1cc(-n2ncc3ccccc32)cnc1N)c1c(Cl)ccc(F)c1Cl (centres unmarked) [Example 78, 3-[1-(2,6-Dichloro-3-fluoro-phenyl)-ethoxy]-5-indazol-1-yl-pyridin-2-ylamine]	5.81	–
